In paper PMC6199744, “Development of Chemical Proteomics for the Folateome and Analysis of the Kinetoplastid Folateome” (ACS Infectious Diseases, 2018):
Like-named read-outs stand apart in the source and are kept apart here.

How the values were obtained:
Format in all cases: binding
[1] = target: T1, HeLa cell extract proteins (Homo sapiens, UniProt Q9NUI1)
T1 construct: endogenous in cells; host or cells: HeLa cell extract
T1 sequence (Q9NUI1 1-292): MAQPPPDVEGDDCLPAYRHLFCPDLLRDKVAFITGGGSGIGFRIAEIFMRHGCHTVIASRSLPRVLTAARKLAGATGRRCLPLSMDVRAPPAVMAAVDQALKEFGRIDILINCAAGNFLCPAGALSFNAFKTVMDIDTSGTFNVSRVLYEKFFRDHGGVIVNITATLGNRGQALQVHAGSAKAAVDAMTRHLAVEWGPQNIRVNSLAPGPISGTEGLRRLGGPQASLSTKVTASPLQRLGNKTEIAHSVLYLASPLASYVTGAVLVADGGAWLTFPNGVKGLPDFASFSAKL

[2] = target: T2, HeLa cell extract proteins (Homo sapiens, UniProt P61604)
T2 construct: endogenous in cells; host or cells: HeLa cell extract

[3] = target: T3, HeLa cell extract proteins (Homo sapiens, UniProt P57088)
T3 construct: endogenous in cells; host or cells: HeLa cell extract
T3 sequence (P57088 1-247): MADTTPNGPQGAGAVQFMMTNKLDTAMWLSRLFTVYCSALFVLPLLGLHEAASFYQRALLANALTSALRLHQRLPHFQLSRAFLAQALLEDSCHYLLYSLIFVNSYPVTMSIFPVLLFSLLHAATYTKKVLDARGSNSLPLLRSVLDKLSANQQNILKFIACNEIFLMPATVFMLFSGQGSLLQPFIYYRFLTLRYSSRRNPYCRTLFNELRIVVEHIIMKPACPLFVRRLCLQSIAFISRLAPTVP

[4] = target: T4, HeLa cell extract proteins (Homo sapiens, UniProt P08238)
T4 construct: endogenous in cells; host or cells: HeLa cell extract

[5] = target: T5, HeLa cell extract proteins (Homo sapiens, UniProt O95218)
T5 construct: endogenous in cells; host or cells: HeLa cell extract
T5 sequence (O95218 1-330): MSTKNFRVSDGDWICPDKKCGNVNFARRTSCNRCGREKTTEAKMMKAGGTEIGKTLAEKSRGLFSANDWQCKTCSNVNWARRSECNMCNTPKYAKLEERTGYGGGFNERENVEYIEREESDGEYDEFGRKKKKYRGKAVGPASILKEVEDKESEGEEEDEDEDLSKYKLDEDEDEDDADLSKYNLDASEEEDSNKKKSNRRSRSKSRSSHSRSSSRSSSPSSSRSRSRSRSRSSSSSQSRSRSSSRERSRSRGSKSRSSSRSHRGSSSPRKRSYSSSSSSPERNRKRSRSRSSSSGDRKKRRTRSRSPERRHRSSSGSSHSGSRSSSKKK

[6] = target: T6, HeLa cell extract proteins (Homo sapiens, UniProt Q6P2E9)
T6 construct: endogenous in cells; host or cells: HeLa cell extract
T6 sequence (Q6P2E9 1-1401): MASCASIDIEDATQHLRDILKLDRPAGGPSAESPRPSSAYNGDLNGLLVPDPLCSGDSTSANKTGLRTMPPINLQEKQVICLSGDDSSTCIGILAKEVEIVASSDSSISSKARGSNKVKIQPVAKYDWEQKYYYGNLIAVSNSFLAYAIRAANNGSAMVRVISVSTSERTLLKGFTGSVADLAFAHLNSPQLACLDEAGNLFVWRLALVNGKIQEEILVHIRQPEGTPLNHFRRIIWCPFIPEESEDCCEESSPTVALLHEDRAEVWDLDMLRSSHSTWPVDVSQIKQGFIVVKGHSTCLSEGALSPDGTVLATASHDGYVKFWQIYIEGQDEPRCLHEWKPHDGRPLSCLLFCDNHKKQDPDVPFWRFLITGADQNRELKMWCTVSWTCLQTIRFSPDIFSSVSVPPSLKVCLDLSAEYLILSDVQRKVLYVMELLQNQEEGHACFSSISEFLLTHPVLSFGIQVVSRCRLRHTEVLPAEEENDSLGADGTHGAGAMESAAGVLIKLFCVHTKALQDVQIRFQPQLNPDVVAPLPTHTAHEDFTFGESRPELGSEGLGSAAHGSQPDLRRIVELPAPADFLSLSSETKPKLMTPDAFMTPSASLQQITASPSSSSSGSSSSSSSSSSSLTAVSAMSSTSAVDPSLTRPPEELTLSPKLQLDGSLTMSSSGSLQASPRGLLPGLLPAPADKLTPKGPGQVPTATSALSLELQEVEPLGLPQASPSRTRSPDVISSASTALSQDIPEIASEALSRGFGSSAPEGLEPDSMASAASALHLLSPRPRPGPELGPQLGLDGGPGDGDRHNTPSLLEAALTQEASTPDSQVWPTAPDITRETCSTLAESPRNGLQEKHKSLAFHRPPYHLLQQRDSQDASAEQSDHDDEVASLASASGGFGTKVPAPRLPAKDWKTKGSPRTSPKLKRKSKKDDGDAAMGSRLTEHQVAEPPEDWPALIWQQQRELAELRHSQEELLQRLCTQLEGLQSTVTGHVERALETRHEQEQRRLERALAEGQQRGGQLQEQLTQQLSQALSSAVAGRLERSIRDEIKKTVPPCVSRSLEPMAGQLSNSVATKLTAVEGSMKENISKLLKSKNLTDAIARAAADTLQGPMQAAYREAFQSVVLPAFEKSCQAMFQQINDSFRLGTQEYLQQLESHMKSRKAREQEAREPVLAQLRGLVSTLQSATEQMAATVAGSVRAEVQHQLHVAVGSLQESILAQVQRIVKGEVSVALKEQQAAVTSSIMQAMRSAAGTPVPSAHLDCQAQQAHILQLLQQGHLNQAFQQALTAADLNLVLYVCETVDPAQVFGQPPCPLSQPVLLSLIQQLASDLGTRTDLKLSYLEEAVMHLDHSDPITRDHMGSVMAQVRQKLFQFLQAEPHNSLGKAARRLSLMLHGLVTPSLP

[7] = HeLa, protein HSP90AB1 (HEAT SHOCK PROTEIN HSP 90-BETA.)

T2 sequence (P61604 whole entry): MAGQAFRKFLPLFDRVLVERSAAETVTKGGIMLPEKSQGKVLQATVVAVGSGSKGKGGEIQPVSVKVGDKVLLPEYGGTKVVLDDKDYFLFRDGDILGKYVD
T4 sequence (P08238 whole entry): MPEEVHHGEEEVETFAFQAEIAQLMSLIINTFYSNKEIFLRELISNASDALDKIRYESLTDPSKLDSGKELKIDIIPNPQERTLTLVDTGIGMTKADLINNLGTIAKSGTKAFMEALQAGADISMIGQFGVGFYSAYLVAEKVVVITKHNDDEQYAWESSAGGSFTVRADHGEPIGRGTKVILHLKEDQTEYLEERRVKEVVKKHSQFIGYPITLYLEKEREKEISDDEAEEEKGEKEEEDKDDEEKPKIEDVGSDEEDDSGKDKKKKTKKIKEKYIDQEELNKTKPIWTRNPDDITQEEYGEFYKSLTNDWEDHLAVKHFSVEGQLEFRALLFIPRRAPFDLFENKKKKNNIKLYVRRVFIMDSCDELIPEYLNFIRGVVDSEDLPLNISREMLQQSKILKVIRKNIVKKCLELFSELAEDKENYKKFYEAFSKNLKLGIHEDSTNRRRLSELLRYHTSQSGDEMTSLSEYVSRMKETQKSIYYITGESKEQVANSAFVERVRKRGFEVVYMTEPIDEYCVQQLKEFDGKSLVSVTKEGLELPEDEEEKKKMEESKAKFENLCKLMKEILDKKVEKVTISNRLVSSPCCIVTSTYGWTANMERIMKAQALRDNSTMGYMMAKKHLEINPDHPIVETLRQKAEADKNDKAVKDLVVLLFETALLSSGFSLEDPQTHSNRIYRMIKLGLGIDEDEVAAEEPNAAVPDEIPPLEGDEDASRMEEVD

Compound	fold changes relative to vehicle control ([1]; HeLa, protein DECR2)	fold changes relative to vehicle control ([2]; HeLa, protein HSPE1)	fold changes relative to vehicle control ([3]; HeLa, protein TMEM33)	fold changes relative to vehicle control ([4]; HeLa, protein HSP90AB1)	fold changes relative to vehicle control ([5]; protein ZRANB2, HeLa)	fold changes relative to vehicle control ([6]; HeLa, protein EDC4)	fold changes relative to vehicle control [1]	fold changes relative to vehicle control [2]	fold changes relative to vehicle control [3]	fold changes relative to vehicle control [4]	fold changes relative to vehicle control [5]	fold changes relative to vehicle control [6]	fold changes relative to vehicle control ([2]; protein HSPE1, HeLa)	fold changes relative to vehicle control ([3]; captured protein TMEM33, HeLa)	fold changes relative to vehicle control [4, 7] [fold]	fold changes relative to vehicle control ([5]; HeLa, protein ZRANB2)
Nc1nc2c(c(=O)[nH]1)N(C=O)C(CNc1ccc(C(=O)N[C@@H](CCC(=O)O)C(=O)O)cc1)CN2 (stereo partly drawn) [LEU, leucovorin]	1.02	1.16	0.88	1.08	0.82	1.03	–	–	–	–	–	–	–	–	–	–
Nc1nc2[nH]cc(CCc3ccc(C(=O)N[C@@H](CCC(=O)O)C(=O)O)cc3)c2c(=O)[nH]1 [PTX, pemetrexed]	–	–	–	–	–	–	0.89	1.42	0.96	1.14	0.87	1.02	–	–	–	–
CCCCCCOc1ccc(Cc2cnc(N)nc2N)cc1 [compound 1]	1	–	–	–	–	0.87	–	–	–	–	–	–	1.38	0.86	1.5	1.04
CCCCCCOc1cccc(Cc2cnc(N)nc2N)c1 [compound 2]	1.05	–	–	–	–	1.12	–	–	–	–	–	–	2.39	0.93	2.33	1.23
Nc1nc2cccc(-c3ccccc3)c2n1Cc1ccc(Cl)c(Cl)c1 [compound 3]	0.99	–	–	–	–	0.98	–	–	–	–	–	–	0.85	1.14	1.06	0.98
NCCOCCOCC(=O)Nc1nc2ncc(CNc3ccc(C(=O)NC(CCC(=O)O)C(=O)O)cc3)nc2c(=O)[nH]1 (stereo not drawn) [compound 6]	0.94	1.69	1	1.36	0.95	1.03	–	–	–	–	–	–	–	–	–	–
NCCCNc1ccc(C(=O)NC(CCC(=O)O)C(=O)O)cc1 (stereo not drawn) [compound 7]	0.93	1.15	1.03	0.98	0.77	0.97	–	–	–	–	–	–	–	–	–	–
